Measurements as given in patent publication US20070099915A1, “INHIBITORS OF THE HIV INTEGRASE ENZYME” (PFIZER INC., priority 2005, published 2007).
pEC50, pIC50: −log10 of the molar value. Like-named read-outs stand apart in the source and are kept apart here.

Assays:
[1] = target: T1, Full-length wild type HIV-1 integrase (SF1) (Human immunodeficiency virus type 1 group M subtype B, UniProt P04585); assay: Integrase strand-transfer scintillation proximity assay; format: biochemical
T1 construct: made in house; host or cells: E. coli BL21 (DE3)

[2] = system: HIV-1 RF virus in CEM-SS cells; assay: HIV-1 cell protection assay (XTT dye reduction); format: cell-based
Summary of the method: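 Infected CEM-SS cultures incubated six days, then XTT with phenazine methosulfate added for 4 h; viability read as formazan absorbance at 450 nm. Formazan expressed as percent of uninfected, compound-free cells; CC50 from uninfected treated cells, therapeutic index as CC50/EC50.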

[3] = strand-transfer SPA, 246 nM integrase, 50 nM host DNA, 37° C., 50 min, read-out: IC50
[4] = Human immunodeficiency virus 1, 144 h, RF strain of HIV-1, CEM-SS cells, XTT read-out after six days, read-out: EC50
[5] = Human immunodeficiency virus 1, CEM-SS, 144 h

**Q.** `CN1CCN(CCCc2cn(Cc3ccc(F)cc3)c3cnc4c(c23)CCN(O)C4=O)CC1=O` [Example 127, 3-(4-fluorobenzyl)-7-hydroxy-1-[3-(4-methyl-3-oxopiperazin-1-yl)propyl]-3,7,8,9-tetrahydro-6H-pyrrolo[2,3-c]-1,7-naphthyridin-6-one] was tested. Which pIC50 [1, 3] did it give?
**A.** 7.85

**Q.** And the pEC50 [2, 4]?
**A.** 7.40

**Q.** How did the pIC50 [1, 3] turn out when `COCCOCCCc1cn(Cc2ccc(F)cc2)c2cnc3c(c12)CCN(O)C3=O` [Example 106, 3-(4-fluorobenzyl)-7-hydroxy-1-[3-(2-methoxyethoxy)propyl]-3,7,8,9-tetrahydro-6H-pyrrolo[2,3-c]-1,7-naphthyridin-6-one] was run?
**A.** 7.85

**Q.** What about the pEC50 [2, 4] of the same compound?
**A.** 9.02

**Q.** What does the source list for `CN(CCc1cn(Cc2ccc(F)cc2)c2cnc3c(c12)CCN(O)C3=O)CC(F)(F)F` [Example 113, 3-(4-fluorobenzyl)-7-hydroxy-1-{2-[methyl(2,2,2-trifluoroethyl)amino]ethyl}-3,7,8,9-tetrahydro-6H-pyrrolo[2,3-c]-1,7-naphthyridin-6-one]?
**A.** pIC50 [1, 3]: 7.82; pEC50 [2, 4]: 8.70

**Q.** `O=C1c2ncc3c(c(CCO)cn3Cc3ccc(F)cc3)c2CCN1O` [Example 110, 3-(4-fluorobenzyl)-7-hydro-1-(2-hydroxyethyl)-8,9-dihydro-3H-pyrrolo[2,3-c][1,7]naphthyridin-6(7H)-one] was tested. Which pIC50 [1, 3] did it give?
**A.** 7.96

**Q.** And the pEC50 [2, 4]?
**A.** 8.30

**Q.** How did the pIC50 [1, 3] turn out when `Cc1cc2c(ncc3c2c(CN2CCOCC2)cn3Cc2ccc(F)cc2)c(=O)n1O` [Example 43, 3-(4-fluorobenzyl)-7-hydroxy-8-methyl-1-(morpholin-4-ylmethyl)-3,7-dihydro-6H-pyrrolo[2,3-c]-1,7-naphthyridin-6-one] was run?
**A.** 8.03

**Q.** And the pEC50 [2, 4]?
**A.** 9.39

**Q.** With `O=C1c2ncc3c(c(CCNCCC(F)(F)F)cn3Cc3ccc(F)cc3)c2CCN1O` [Example 117, 3-(4-fluorobenzyl)-7-hydroxy-1-{2-[(3,3,3-trifluoropropyl)amino]ethyl}-3,7,8,9-tetrahydro-6H-pyrrolo[2,3-c]-1,7-naphthyridin-6-one] as the compound, how does the pIC50 [1, 3] read?
**A.** 7.77

**Q.** What about the pEC50 [2, 4] of the same compound?
**A.** 8.22

**Q.** `Cc1cc2c(ncc3c2c(CN2CCCC2)cn3Cc2ccc(F)cc2)c(=O)n1O` [Example 46, 3-(4-fluorobenzyl)-7-hydroxy-8-methyl-1-(pyrrolidin-1-ylmethyl)-3,7-dihydro-6H-pyrrolo[2,3-c]-1,7-naphthyridin-6-one] was tested. Which pIC50 [1, 3] did it give?
**A.** 8.08

**Q.** What about the pEC50 [2, 4] of the same compound?
**A.** 8.96

**Q.** How did the pIC50 [1, 3] turn out when `CC(C)COCCOCc1cn(Cc2ccc(F)cc2)c2cnc3c(c12)CCN(O)C3=O` [Example 58, 3-(4-fluorobenzyl)-7-hydroxy-1-[(2-isobutoxyethoxy)methyl]-3,7,8,9-tetrahydro-6H-pyrrolo[2,3-c]-1,7-naphthyridin-6-one] was run?
**A.** 7.80

**Q.** And the pEC50 [2, 4]?
**A.** 9.28

**Q.** What does the source list for `O=C1c2ncc3c(c(C(=O)N4CCCC4)cn3Cc3ccc(F)cc3)c2CCN1O` [Example 14, 3-(4-fluorobenzyl)-7-hydroxy-1-(pyrrolidin-1-ylcarbonyl)-3,7,8,9-tetrahydro-6H-pyrrolo[2,3-c]-1,7-naphthyridin-6-one]?
**A.** pIC50 [1, 3]: 7.80; pEC50 [2, 5]: 8.15

**Q.** How did the pIC50 [1, 3] turn out when `COCCN(C)Cc1cn(Cc2ccc(F)cc2)c2cnc3c(=O)n(O)c(C)cc3c12` [Example 102, 3-(4-fluorobenzyl)-7-hydroxy-1-{[(2-methoxyethyl)(methyl)amino]methyl}-8-methyl-3,7-dihydro-6H-pyrrolo[2,3-c]-1,7-naphthyridin-6-one] was run?
**A.** 7.89

**Q.** What about the pEC50 [2, 4] of the same compound?
**A.** 9.60

**Q.** With `N#Cc1ccccc1Cn1ccc2c3c(ncc21)C(=O)N(O)CC3` [Example 84, 2-[(7-hydroxy-6-oxo-6,7,8,9-tetrahydro-3H-pyrrolo[2,3-c]-1,7-naphthyridin-3-yl)methyl]benzonitrile] as the compound, how does the pIC50 [1, 3] read?
**A.** 6.90

**Q.** And the pEC50 [2, 4]?
**A.** 7.49

**Q.** With `O=C1c2ncc3c(c(COC4CCOCC4)cn3Cc3ccc(F)cc3)c2CCN1O` [Example 30, 3-(4-fluorobenzyl)-7-hydroxy-1-[(tetrahydro-2H-pyran-4-yloxy)methyl]-3,7,8,9-tetrahydro-6H-pyrrolo[2,3-c]-1,7-naphthyridin-6-one] as the compound, how does the pIC50 [1, 3] read?
**A.** 7.38

**Q.** What about the pEC50 [2, 4] of the same compound?
**A.** 8.30

**Q.** With `Cc1cc2c(ncc3c2c(CN(C)C)cn3Cc2ccc(F)cc2)c(=O)n1O` [Example 42, 1-[(dimethylamino)methyl]-3-(4-fluorobenzyl)-7-hydroxy-8-methyl-3,7-dihydro-6H-pyrrolo[2,3-c]-1,7-naphthyridin-6-one] as the compound, how does the pIC50 [1, 3] read?
**A.** 8.09

**Q.** And the pEC50 [2, 4]?
**A.** 9.37

**Q.** With `Cc1cc2c(ncc3c2c(CN2CCCCC2)cn3Cc2ccc(F)cc2)c(=O)n1O` [Example 101, 3-(4-fluorobenzyl)-7-hydroxy-8-methyl-1-(piperidin-1-ylmethyl)-3,7-dihydro-6H-pyrrolo[2,3-c]-1,7-naphthyridin-6-one] as the compound, how does the pIC50 [1, 3] read?
**A.** 7.85

**Q.** And the pEC50 [2, 4]?
**A.** 9.34

**Q.** Which results are given for `O=C1c2ncc3c(c(CNCC(F)F)cn3Cc3ccc(F)cc3)c2CCN1O` [Example 81, 1-{[(2,2-difluoroethyl)amino]methyl}-3-(4-fluorobenzyl)-7-hydroxy-3,7,8,9-tetrahydro-6H-pyrrolo[2,3-c]-1,7-naphthyridin-6-one]?
**A.** pIC50 [1, 3]: 8.10; pEC50 [2, 4]: 9.49

**Q.** `COC[C@H]1CCCN1C(=O)c1cn(Cc2ccc(F)cc2)c2cnc3c(c12)CCN(O)C3=O` [Example 19, 3-(4-fluorobenzyl)-7-hydroxy-1-{[(2R)-2-(methoxymethyl)pyrrolidin-1-yl]carbonyl}-3,7,8,9-tetrahydro-6H-pyrrolo[2,3-c]-1,7-naphthyridin-6-one] was tested. Which pIC50 [1, 3] did it give?
**A.** 7.44

**Q.** And the pEC50 [2, 5]?
**A.** 8.35

**Q.** How did the pIC50 [1, 3] turn out when `N#Cc1ccc(Cn2ccc3c4c(ncc32)C(=O)N(O)CC4)cc1` [Example 86, 4-[(7-hydroxy-6-oxo-6,7,8,9-tetrahydro-3H-pyrrolo[2,3-c]-1,7-naphthyridin-3-yl)methyl]benzonitrile] was run?
**A.** 6.97

**Q.** What about the pEC50 [2, 4] of the same compound?
**A.** 7.57

**Q.** `CC(C)N(CCOCc1cn(Cc2ccc(F)cc2)c2cnc3c(c12)CCN(O)C3=O)C(C)C` [Example 80, 1-{[2-(diisopropylamino)ethoxy]methyl}-3-(4-fluorobenzyl)-7-hydroxy-3,7,8,9-tetrahydro-6H-pyrrolo[2,3-c]-1,7-naphthyridin-6-one] was tested. Which pIC50 [1, 3] did it give?
**A.** 7.64

**Q.** And the pEC50 [2, 4]?
**A.** 7.92

**Q.** Which results are given for `CN1CCN(Cc2cn(Cc3ccc(F)cc3)c3cnc4c(c23)CCN(O)C4=O)CC1` [Example 29, 3-(4-fluorobenzyl)-7-hydroxy-1-[(4-methylpiperazin-1-yl)methyl]-3,7,8,9-tetrahydro-6H-pyrrolo[2,3-c]-1,7-naphthyridin-6-one]?
**A.** pIC50 [1, 3]: 7.55; pEC50 [2, 4]: 8.52

**Q.** `O=c1c2ncc3c(c(CO)cn3Cc3ccc(F)cc3)c2ccn1O` [Example 26, 3-(4-fluorobenzyl)-7-hydroxy-1-(hydroxymethyl)-3H-pyrrolo[2,3-c][1,7]naphthyridin-6(7H)-one] was tested. Which pIC50 [1, 3] did it give?
**A.** 7.42

**Q.** What about the pEC50 [2, 4] of the same compound?
**A.** 8.52

**Q.** With `N#Cc1cn(Cc2ccc(F)cc2)c2cnc3c(c12)CCN(O)C3=O` [Example 54, 3-(4-fluorobenzyl)-7-hydroxy-6-oxo-6,7,8,9-tetrahydro-3H-pyrrolo[2,3-c]-1,7-naphthyridine-1-carbonitrile] as the compound, how does the pIC50 [1, 3] read?
**A.** 7.70

**Q.** What about the pEC50 [2, 4] of the same compound?
**A.** 8.18

**Q.** With `Cc1cc2c(ncc3c2c(CO)cn3Cc2ccc(F)cc2)c(=O)n1O` [Example 47, 3-(4-fluorobenzyl)-7-hydroxy-1-(hydroxymethyl)-8-methyl-3,7-dihydro-6H-pyrrolo[2,3-c]-1,7-naphthyridin-6-one] as the compound, how does the pIC50 [1] read?
**A.** 8.22

**Q.** What about the pEC50 [2, 5] of the same compound?
**A.** 9.41

**Q.** How did the pIC50 [1, 3] turn out when `CN(C)C(=O)[C@@H]1CCCN1Cc1cn(Cc2ccc(F)cc2)c2cnc3c(c12)CCN(O)C3=O` [Example 41, 1-{[3-(4-fluorobenzyl)-7-hydroxy-6-oxo-6,7,8,9-tetrahydro-3H-pyrrolo[2,3-c]-1,7-naphthyridin-1-yl]methyl}-N,N-dimethyl-L-prolinamide] was run?
**A.** 7.55

**Q.** And the pEC50 [2, 4]?
**A.** 7.54

**Q.** With “3-(4-fluorobenzyl)-7-hydroxy-1-[(2-propoxyethoxy)methyl]-3,7-dihydro-6H-pyrrolo[23-c]-17-naphthyridin-6-one [Example 89]” as the compound, how does the pIC50 [1, 3] read?
**A.** 8.00

**Q.** What about the pEC50 ([2]; RF strain of HIV-1, CEM-SS cells, XTT read-out after six days, read-out: EC50) of the same compound?
**A.** 9.00

**Q.** `COCCOCc1cn(Cc2ccc(F)cc2)c2cnc3c(c12)CCN(O)C3=O` [Example 22, 3-(4-fluorobenzyl)-7-hydroxy-1-[(2-methoxyethoxy)methyl]-3,7,8,9-tetrahydro-6H-pyrrolo[2,3-c]-1,7-naphthyridin-6-one] was tested. Which pIC50 [1, 3] did it give?
**A.** 7.85

**Q.** What about the pEC50 [2, 4] of the same compound?
**A.** 8.82

**Q.** How did the pIC50 [1, 3] turn out when `CC(=O)c1cn(Cc2ccc(F)cc2)c2cnc3c(c12)CCN(O)C3=O` [Example 68, 1-acetyl-3-(4-fluorobenzyl)-7-hydroxy-3,7,8,9-tetrahydro-6H-pyrrolo[2,3-c]-1,7-naphthyridin-6-one-methane (1:1)] was run?
**A.** 7.92

**Q.** What about the pEC50 [2, 5] of the same compound?
**A.** 8.52

**Q.** What does the source list for `CC(NCc1cn(Cc2ccc(F)cc2)c2cnc3c(=O)n(O)ccc3c12)c1ccc(Br)cc1` (stereo not drawn) [Example 36, 1-({[1-(4-bromophenyl)ethyl]amino}methyl)-3-(4-fluorobenzyl)-7-hydroxy-3,7-dihydro-6H-pyrrolo[2,3-c]-1,7-naphthyridin-6-one]?
**A.** pIC50 [1, 3]: 8.00; pEC50 [2, 4]: 8.52

**Q.** With `CC(=O)C1CCN(Cc2cn(Cc3ccc(F)cc3)c3cnc4c(c23)CCN(O)C4=O)CC1` [Example 99, 1-[(4-acetylpiperidin-1-yl)methyl]-3-(4-fluorobenzyl)-7-hydroxy-3,7,8,9-tetrahydro-6H-pyrrolo[2,3-c]-1,7-naphthyridin-6-one] as the compound, how does the pIC50 [1, 3] read?
**A.** 7.66

**Q.** And the pEC50 [2, 4]?
**A.** 8.30

**Q.** How did the pIC50 [1, 3] turn out when `CN(C)C(=O)c1cccc(-c2cn(Cc3ccc(F)cc3)c3cnc4c(=O)n(O)ccc4c23)c1` [Example 8, 3-[3-(4-fluorobenzyl)-7-hydroxy-6-oxo-6,7-dihydro-3H-pyrrolo[2,3-c]-1,7-naphthyridin-1-yl]-N,N-dimethylbenzamide] was run?
**A.** 7.43

**Q.** What about the pEC50 [2, 4] of the same compound?
**A.** 8.30

**Q.** `CN(CCc1cn(Cc2ccc(F)cc2)c2cnc3c(c12)CCN(O)C3=O)CC1CC1` [Example 114] was tested. Which pIC50 [1, 3] did it give?
**A.** 7.72

**Q.** What about the pEC50 [2, 4] of the same compound?
**A.** 8.00
